The values below come from patent publication US20250059188A1, “ARYLSULPHONAMIDE COMPOUNDS” (Anaxis Pharma Pty Ltd, priority 2021, published 2025).

The target in one assay is human MLKL (full length) (Homo sapiens (Human), UniProt Q8NB16). Briefly: KINOMEscan binding assay, human MLKL (full length). The settings on record: equilibrium dissociation constant. A digest of the protocol:
(§1)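 Assay principle: test compound competes with immobilized bead ligand for kinase; kinase retained, then eluted, is counted by qPCR. Conditions were 1% DMSO final with 11 compound concentrations in 3-fold steps, 30,000 nM top for most. The Hill equation with slope −1 gave Kd.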

The target in another assay is mouse MLKL (full length) (Mus musculus (Mouse), UniProt Q9D2Y4). Briefly: KINOMEscan binding assay, mouse MLKL (full length). The settings on record: equilibrium dissociation constant. As for the experimental part:
Binding affinity of the test compounds for human MLKL (full length), mouse MLKL (full length), human RIPK1 and human RIPK3 was determined using the KINOMEscan™ technology developed by DiscoverX (USA; http://www.discoverx.com). The assay was conducted according to manufacturer instructions.
Kinase assays. For most assays, kinase-tagged T7 phage strains were grown in parallel in 24-well blocks in an E. coli host derived from the BL21 strain. E. coli were grown to log-phase and infected with T7 phage from a frozen stock (multiplicity of infection=0.4) and incubated with shaking at 32° C. until lysis (90-150 minutes). The lysates were centrifuged (6,000×g) and filtered (0.2 μm) to remove cell debris. The remaining kinases were produced in HEK-293 cells and subsequently tagged with DNA for qPCR detection. […] The liganded beads were blocked with excess biotin and washed with blocking buffer (SeaBlock (Pierce), 1% BSA, 0.05% Tween 20, 1 mM DTT) to remove unbound ligand and to reduce non-specific phage binding. […] All reactions were performed in polypropylene 384-well plates in a final volume of 20 μL. […] The kinase concentration in the eluates was measured by qPCR.
An 11-point 3-fold serial dilution of each test compound was prepared in 100% DMSO at 100× final test concentration and subsequently diluted to 1× in the assay (final DMSO concentration=1%). Most Kos were determined using a compound top concentration=30,000 nM.
KD for each test compound was calculated with a standard dose-response curve using the Hill equation (equation (1)): […]
The Hill Slope was set to −1.
Curves were fitted using a non-linear least square fit with the Levenberg-Marquardt algorithm.

In a further assay the target is human RIPK1 (Homo sapiens (Human), UniProt Q13546). Nature of the assay: KINOMEscan binding assay, human RIPK1. The settings on record: equilibrium dissociation constant. A digest of the protocol: as §1
human RIPK1, sequence (Q13546 whole entry): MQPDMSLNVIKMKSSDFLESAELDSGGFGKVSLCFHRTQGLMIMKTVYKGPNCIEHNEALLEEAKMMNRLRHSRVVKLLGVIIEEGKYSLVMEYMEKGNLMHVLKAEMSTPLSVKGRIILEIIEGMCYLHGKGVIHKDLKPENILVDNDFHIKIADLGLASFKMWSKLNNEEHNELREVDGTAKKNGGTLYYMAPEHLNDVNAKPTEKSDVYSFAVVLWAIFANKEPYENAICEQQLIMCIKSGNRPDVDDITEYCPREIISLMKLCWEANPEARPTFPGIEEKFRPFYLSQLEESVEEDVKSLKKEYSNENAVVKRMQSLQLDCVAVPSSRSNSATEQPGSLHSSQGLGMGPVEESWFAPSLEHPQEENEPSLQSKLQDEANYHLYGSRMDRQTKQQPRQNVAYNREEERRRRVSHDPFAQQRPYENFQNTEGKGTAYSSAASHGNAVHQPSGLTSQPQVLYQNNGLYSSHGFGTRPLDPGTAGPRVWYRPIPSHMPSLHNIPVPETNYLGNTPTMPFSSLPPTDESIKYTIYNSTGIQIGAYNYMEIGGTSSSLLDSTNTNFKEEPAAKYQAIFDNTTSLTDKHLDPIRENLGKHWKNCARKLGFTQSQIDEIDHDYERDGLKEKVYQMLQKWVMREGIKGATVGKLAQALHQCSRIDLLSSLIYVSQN
In a further assay the target is human RIPK3 (Homo sapiens (Human), UniProt Q9Y572). Briefly: KINOMEscan binding assay, human RIPK3. The settings on record: equilibrium dissociation constant. In a few lines:
as §1

Assay [1] has as its system U937 human histiocytic leukemia cell line. Briefly: Inhibition of TSQ induced necroptosis in U937 cells (CellTitre-Glo). The settings on record: Homo sapiens, U-937, TSQ cocktail (TNF, Smac mimetic, Q-VD-OPh), 48 hours, read-out: Inhibition of TSQ-induced necroptosis (IC50 cell-based assay). A digest of the protocol:
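Necroptosis was induced with TNF-Fc (100 ng/ml), Smac mimetic (500 nM) and Q-VD-OPh (10 μM) in 20000 U937 cells/well exposed to a 10-point, 3-fold compound series (top 36 μM, 0.3% DMSO). ATP luminescence read after 48 h; 4-parameter fit gave IC50. Parallel TSQ-free wells assessed compound toxicity.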

For another assay, the system named is U937 cells. Nature of the assay: Counter screen: U937 cell viability without TSQ cocktail (off-target effect). Also noted: species or system human. The settings on record: Homo sapiens, U-937, compound without TSQ cocktail, read-out: Off-target effect (IC50 cell-based assay). A digest of the protocol:
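Off-target viability counter screen: compounds titrated 36 μM down 1:3 over 10 points (0.3% DMSO) on 20,000 U937 cells/well, no TNF/Smac mimetic/Q-VD-OPh added, 48 h incubation. ATP-based CellTiter-Glo luminescence, four-parameter logistic IC50.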
On the technique in general: A counterscreen serves to expose hits that act by an unwanted route or on another target.

pIC50, pKd: −log10 of the molar value.

human MLKL (full length), sequence (Q8NB16 whole entry): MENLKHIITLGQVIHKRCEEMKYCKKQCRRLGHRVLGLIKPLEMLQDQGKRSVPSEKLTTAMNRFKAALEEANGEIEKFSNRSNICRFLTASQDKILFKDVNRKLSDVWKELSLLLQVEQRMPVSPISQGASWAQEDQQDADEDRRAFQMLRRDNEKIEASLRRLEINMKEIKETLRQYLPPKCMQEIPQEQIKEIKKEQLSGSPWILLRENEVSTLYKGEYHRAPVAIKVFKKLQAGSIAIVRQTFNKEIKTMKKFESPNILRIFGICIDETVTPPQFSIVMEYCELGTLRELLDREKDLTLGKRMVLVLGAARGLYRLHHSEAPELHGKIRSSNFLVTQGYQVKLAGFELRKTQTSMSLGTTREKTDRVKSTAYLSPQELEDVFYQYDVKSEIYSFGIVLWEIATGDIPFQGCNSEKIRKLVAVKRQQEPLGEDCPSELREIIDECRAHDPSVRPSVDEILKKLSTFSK
human RIPK3, sequence (Q9Y572 whole entry): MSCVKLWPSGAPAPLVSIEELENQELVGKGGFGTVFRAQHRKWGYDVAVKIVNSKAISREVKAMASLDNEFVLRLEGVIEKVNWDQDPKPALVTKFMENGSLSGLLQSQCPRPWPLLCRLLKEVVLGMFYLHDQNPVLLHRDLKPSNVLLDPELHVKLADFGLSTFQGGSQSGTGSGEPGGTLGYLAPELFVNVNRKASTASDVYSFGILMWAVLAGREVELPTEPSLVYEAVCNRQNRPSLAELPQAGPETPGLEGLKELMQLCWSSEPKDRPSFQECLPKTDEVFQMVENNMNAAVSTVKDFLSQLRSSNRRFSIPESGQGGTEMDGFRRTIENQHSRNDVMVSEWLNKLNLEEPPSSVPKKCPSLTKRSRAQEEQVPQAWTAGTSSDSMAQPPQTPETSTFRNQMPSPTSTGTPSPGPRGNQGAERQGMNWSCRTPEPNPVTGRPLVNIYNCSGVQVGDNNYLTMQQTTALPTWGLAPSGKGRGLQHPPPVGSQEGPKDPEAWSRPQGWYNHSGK
mouse MLKL (full length), sequence (Q9D2Y4 whole entry): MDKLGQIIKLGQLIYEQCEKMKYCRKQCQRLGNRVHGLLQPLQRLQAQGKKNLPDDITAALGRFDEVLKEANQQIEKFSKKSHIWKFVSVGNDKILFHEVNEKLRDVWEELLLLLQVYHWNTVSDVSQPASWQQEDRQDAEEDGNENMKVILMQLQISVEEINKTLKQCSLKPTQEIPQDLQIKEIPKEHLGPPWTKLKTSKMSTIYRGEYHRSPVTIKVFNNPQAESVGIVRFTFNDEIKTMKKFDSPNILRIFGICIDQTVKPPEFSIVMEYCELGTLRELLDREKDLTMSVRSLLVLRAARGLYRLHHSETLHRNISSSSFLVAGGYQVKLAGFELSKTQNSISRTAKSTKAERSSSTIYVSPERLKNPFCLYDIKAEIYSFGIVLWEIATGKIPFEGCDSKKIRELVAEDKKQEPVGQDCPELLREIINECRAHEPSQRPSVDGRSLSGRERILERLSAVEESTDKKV

A word on the pKd: it is −log10 of the Kd, conventionally taken in molar units. Broadly, the pIC50 is the IC50 on a negative log10 scale, so that one unit is a factor of ten. As to `C[C@H](Oc1cc(-c2nn(C)c3c(-c4cnn(C)c4)cnc(N)c23)ccc1NS(=O)(=O)C(F)F)c1ccc(F)cc1` [Compound 20, (S)-N-(4-(4-amino-1-methyl-7-(1-methyl-1H-pyrazol-4-yl)-1H-pyrazolo[4,3-c]pyridin-3-yl)-2-(1-(4-fluorophenyl)ethoxy)phenyl)-1,1-difluoromethanesulfonamide], the pKd at human MLKL (full length) was above 9.00; at mouse MLKL (full length), above 9.00; at human RIPK1, below 5.00; on human RIPK3, below 5.00. Moreover, the pIC50 in assay [1] is 6.00 to 8.00; in the assay on U937 cells it was below 5.00.
Take `C[C@H](Oc1cc(-c2nn(C)c3c(-c4cnn(C5CCN(CC(F)(F)F)CC5)c4)cnc(N)c23)ccc1NS(=O)(=O)C(F)F)c1ccc(F)cc1` [Compound 61, (S)-N-(4-(4-amino-1-methyl-7-(1-(1-(2,2,2-trifluoroethyl)piperidin-4-yl)-1H-pyrazol-4-yl)-1H-pyrazolo[4,3-c]pyridin-3-yl)-2-(1-(4-fluorophenyl)ethoxy)phenyl)-1,1-difluoromethanesulfonamide]: the pKd at human MLKL (full length) is 7.00 to 9.00; on mouse MLKL (full length), 7.00 to 9.00; on human RIPK1, below 5.00; on human RIPK3, below 5.00. Further, the pIC50 in assay [1] was 6.00 to 8.00; in the assay on U937 cells it was below 5.00.
Turning to `C[C@H](Oc1cc(-c2coc3c(-c4cnn(C5CCOCC5)c4)cnc(N)c23)ccc1NS(=O)(=O)C(F)F)c1ccc(F)cc1` [Compound 7, (S)-N-(4-(4-amino-7-(1-(tetrahydro-2H-pyran-4-yl)-1H-pyrazol-4-yl)furo[3,2-c]pyridin-3-yl)-2-(1-(4-fluorophenyl)ethoxy)phenyl)-1,1-difluoromethanesulfonamide], the negative-log Kd (pKd) at human MLKL (full length) was 7.00 to 9.00; at mouse MLKL (full length), above 9.00; on human RIPK1, below 5.00; on human RIPK3, below 5.00. Moreover, the pIC50 in assay [1] is 6.00 to 8.00; in the assay with U937 cells it was 5.00 to 6.00.
As to `C[C@H](Oc1cc(-c2nn(C)c3c(-c4cnn(CCN5CCN(C)CC5)c4)cnc(N)c23)ccc1NS(=O)(=O)C(F)F)c1ccc(F)cc1` [Compound 60, (S)-N-(4-(4-amino-1-methyl-7-(1-(2-(4-methylpiperazin-1-yl)ethyl)-1H-pyrazol-4-yl)-1H-pyrazolo[4,3-c]pyridin-3-yl)-2-(1-(4-fluorophenyl)ethoxy)phenyl)-1,1-difluoromethanesulfonamide], the pKd on human MLKL (full length) was 7.00 to 9.00; on mouse MLKL (full length), above 9.00; at human RIPK1, below 5.00; at human RIPK3 it was below 5.00. The pIC50 is 6.00 to 8.00 in assay [1] and below 5.00 with U937 cells.
Turning to `Nc1n[nH]c2ncnc(-c3ccc(NS(=O)(=O)C(F)F)c(OCc4ccc(F)cc4)c3)c12` [Compound 69, N-(4-(3-Amino-1H-pyrazolo[3,4-d]pyrimidin-4-yl)-2-((4-fluorophenyl)methoxy)phenyl)-1,1-difluoromethanesulfonamide], the pKd is above 9.00 on human MLKL (full length), 7.00 to 9.00 on mouse MLKL (full length), below 5.00 on human RIPK1 and below 5.00 at human RIPK3.
With `C[C@H](Oc1cc(-c2nn(C)c3c(-c4cnn(CCO)c4)cnc(N)c23)ccc1NS(=O)(=O)C(F)F)c1ccc(F)cc1` [Compound 15, (S)-N-(4-(4-amino-7-(1-(2-hydroxyethyl)-1H-pyrazol-4-yl)-1-methyl-1H-pyrazolo[4,3-c]pyridin-3-yl)-2-(1-(4-fluorophenyl)ethoxy)phenyl)-1,1-difluoromethanesulfonamide], the pKd was above 9.00 on human MLKL (full length), above 9.00 on mouse MLKL (full length), below 5.00 on human RIPK1 and below 5.00 on human RIPK3. Further, the pIC50 in assay [1] is 6.00 to 8.00; in the assay with U937 cells, below 5.00.
As to `C[C@H](Oc1cc(-c2ccnc3[nH]nc(N)c23)ccc1NS(=O)(=O)C(F)F)c1ccc(F)cc1` [Compound 72, N-(4-(3-Amino-1H-pyrazolo[3,4-b]pyridin-4-yl)-2-((1S)-1-(4-fluorophenyl)ethoxy)phenyl)-1,1-difluoromethanesulfonamide], the pKd on human MLKL (full length) was above 9.00; on mouse MLKL (full length) it was 7.00 to 9.00; at human RIPK1, below 5.00; on human RIPK3 it was below 5.00. The negative-log IC50 (pIC50) is 6.00 to 8.00 in assay [1] and below 5.00 in the assay with U937 cells.
With `C[C@H](Oc1cc(-c2coc3c(-c4cnn(CCO)c4)cnc(N)c23)ccc1NS(=O)(=O)C(F)F)c1ccc(F)cc1` [Compound 9, (S)-N-(4-(4-amino-7-(1-(2-hydroxyethyl)-1H-pyrazol-4-yl)furo[3,2-c]pyridin-3-yl)-2-(1-(4-fluorophenyl)ethoxy)phenyl)-1,1-difluoromethanesulfonamide], the pKd was above 9.00 at human MLKL (full length), 7.00 to 9.00 at mouse MLKL (full length), below 5.00 at human RIPK1 and below 5.00 at human RIPK3. In addition, the pIC50 in assay [1] was 6.00 to 8.00; in the assay with U937 cells it was 5.00 to 6.00.
`C[C@H](Oc1cc(-c2nn(C)c3c(-c4ccncc4)cnc(N)c23)ccc1NS(=O)(=O)C(F)F)c1ccc(F)cc1` [Compound 18, (S)-N-(4-(4-amino-1-methyl-7-(pyridin-4-yl)-1H-pyrazolo[4,3-c]pyridin-3-yl)-2-(1-(4-fluorophenyl)ethoxy)phenyl)-1,1-difluoromethanesulfonamide]: the pKd at human MLKL (full length) is above 9.00; at mouse MLKL (full length), 7.00 to 9.00; at human RIPK1, below 5.00; on human RIPK3 it was below 5.00. In addition, the pIC50 in assay [1] is 6.00 to 8.00; in the assay with U937 cells, below 5.00.
With `Cc1cc(-c2ccc(NS(=O)(=O)C(F)F)c(OCc3ccc(F)cc3)c2)c2c(N)n[nH]c2n1` [Compound 70, N-(4-(3-Amino-6-methyl-1H-pyrazolo[3,4-b]pyridin-4-yl)-2-((4-fluorophenyl)methoxy)phenyl)-1,1-difluoromethanesulfonamide], the pKd is above 9.00 at human MLKL (full length), 7.00 to 9.00 on mouse MLKL (full length), below 5.00 at human RIPK1 and below 5.00 at human RIPK3.
